System: CARE patients
Assay: CARE trial: pravastatin vs placebo, recurrent MI in subgroups defined by KIF6 (and neighbouring SNP) genotype
Format: in vivo, human
Settings: for HR, Unadjusted (recurrent MI, pravastatin vs placebo): placebo = ref; for OR for minor hom / OR for carrier (Min + Het) / OR for Het / OR for major hom: risk of recurrent MI
Excerpt: In order to identify genetic markers associated with CHD (particularly MI, including recurrent MI) or the effect of statin treatment on CHD, samples were genotyped in two clinical trials: the Cholesterol and Recurrent Events (CARE) study (a randomized multicentral double-blinded trial on secondary prevention of MI with pravastatin (Pravachol®); Sacks et al., Am. J. Cardiol. 68: 1436-1446 [1991]), and the West of Scotland Coronary Prevention Study (WOSCOPS) study (a randomized multicentral double-blinded trial on primary prevention of CHD with pravastatin (Pravachol®); Shepherd et al., N Eng J Med 333 (20), pp. 1301-7, Nov. 16, 1995; Packard et al., N Eng J Med 343 (16), pp. 1148-55, Oct. 19, 2000).
A well-documented MI was one of the enrollment criteria for entry into the CARE study. Patients were enrolled in the CARE trial from 80 participating study centers. […] Patients were randomized to receive either 40 mg of pravastatin once daily or a matching placebo. The primary endpoint of the trial was death from CHD or nonfatal MI and the median duration of follow-up was 5.0 years (range, 4.0 to 6.2 years). For this genetic study of CARE, a composite endpoint comprised of fatal or nonfatal recurrent MI was used.
For genotyping SNPs in CARE patient samples, DNA was extracted from blood samples using conventional DNA extraction methods such as the QIAamp kit from Qiagen. Genotypes were obtained by a method similar to that described by Iannone (M. A. Iannone et al., Cytometry 39(2):131-140 [Feb. 1, 2000]; also described in section “SNP DETECTION REAGENTS,” supra). Briefly, target DNA was amplified by multiplex PCR, the amplified product was submitted to a multiplex oligo ligation assay (OLA), the specific ligated products were hybridized to unique universal “ZIP code” oligomer sequences covalently attached to Luminex xMAP® Multi-Analyte COOH Microspheres, and these hybridization products/microspheres were detected in a rapid automated multiplex system (Luminex 100 instrument).
In analyzing the CARE patients, statistical analysis was performed with SAS version 9. Cox proportional hazard models (Wald tests) were used in CARE to assess the association of genotype with both the risk of incident MI in the placebo arm and the effect of pravastatin on MI compared to placebo in subgroups defined by genotypes. In analyzing the WOSCOPS patients, a conditional logistic regression model was used in WOSCOPS given that the controls had been previously matched to the cases. The column entitled “On-trial MI” lists the number of patients who suffered a recurrent MI during the clinical trial period.
HR stands for Hazard Ratio, which is a concept similar to Odds Ratio (OR). The HR in event-free survival analysis is the effect of an explanatory variable on the hazard or risk of an event. For examples, it describes the likelihood of developing MI based on comparison of rate of coronary events between carriers of the certain allele and noncarriers; therefore, HR=1.5 would mean that carriers of the certain allele have 50% higher risk of coronary events during the study follow up than non-carriers. HR can also describe the effect of statin therapy on coronary events based on comparison of rate of coronary events between patient treated with statin and patient treated with placebo (or other statin) in subgroups defined by SNP genotype; therefore, HR=0.5 would mean that, for example, carriers of the certain allele, had 50% reduction of coronary events by statin therapy as compared to placebo. In Table 6, p interaction values were calculated. An interaction (or effect modification) is formed when a third variable modifies the relation between an exposure and outcome. […] Genotype and drug interaction is present when the effect of statins (incidence rate of disease in statin-treated group, as compared to placebo) differs in patients with different genotypes. The hCV3054799 risk allele predicted risk of MI in CARE and was associated with odds of CHD in WOSCOPS. […]

CC[C@H](C)C(=O)O[C@H]1C[C@H](O)C=C2C=C[C@H](C)[C@H](CC[C@@H](O)C[C@@H](O)CC(=O)O)[C@H]21 [Pravastatin, pravastatin]
HR, Adjusted (recurrent MI, pravastatin vs placebo) (AA (noncarriers), adjusted for conventional risk factors): 0.80 | On-trial MI (AA, of 554 patients in the pravastatin arm): 39 number of patients | HR, Adjusted (recurrent MI, pravastatin vs placebo) (GG + GA (719Arg carriers), adjusted for age, smoking, hypertension, diabetes, BMI, LDL-C, HDL-C): 0.63 | On-trial MI (GG + GA, of 810 patients in the pravastatin arm): 64 number of patients | HR, Unadjusted (recurrent MI, pravastatin vs placebo) (KIF6 Trp719Arg AA (noncarriers)): 0.86 | HR, Unadjusted (recurrent MI, pravastatin vs placebo) (KIF6 Trp719Arg GG + GA (719Arg carriers), 40 mg pravastatin once daily): 0.63 | reduction of relative risk of recurrent MI (carriers of the 719Arg risk allele, pravastatin vs placebo): 37% | risk reduction (coronary events) (noncarriers, pravastatin vs placebo, insignificant): 20% | OR, Effect of Pravastatin on MI and CHD (pravastatin vs placebo, hCV3054808 genotype AA): 1.04 | OR, Effect of Pravastatin on MI and CHD (pravastatin vs placebo, hCV3054808 genotype AC): 0.50 | OR, Effect of Pravastatin on MI and CHD (pravastatin vs placebo, hCV3054808 genotype CC): 1.01 | OR, Effect of Pravastatin on MI and CHD (pravastatin vs placebo, hCV3054813 genotype CC): 0.98 | OR, Effect of Pravastatin on MI and CHD (pravastatin vs placebo, hCV3054813 genotype CT): 0.45 | OR, Effect of Pravastatin on MI and CHD (pravastatin vs placebo, hCV3054813 genotype TT): 1.06 | OR, Effect of Pravastatin on MI and CHD (pravastatin vs placebo, hCV29992177 genotype AA): 0.71 | OR, Effect of Pravastatin on MI and CHD (pravastatin vs placebo, hCV29992177 genotype GA): 0.57 | OR, Effect of Pravastatin on MI and CHD (pravastatin vs placebo, hCV29992177 genotype GG): 1.88 | OR, Effect of Pravastatin on MI and CHD (pravastatin vs placebo, hCV30225864 genotype CC): 0.79 | OR, Effect of Pravastatin on MI and CHD (pravastatin vs placebo, hCV30225864 genotype CT): 0.63 | OR, Effect of Pravastatin on MI and CHD (pravastatin vs placebo, hCV30225864 genotype TT): 0.73 | OR for minor hom (pravastatin vs placebo, hCV792699 CC minor homozygotes): 0.8127 | OR for carrier (Min + Het) (pravastatin vs placebo, hCV792699 CC+CT carriers of minor allele): 0.7089 | OR for Het (pravastatin vs placebo, hCV792699 CT heterozygotes): 0.6534 | OR for major hom (pravastatin vs placebo, hCV792699 TT major homozygotes): 0.8085 | OR for major hom (pravastatin vs placebo, hCV1650850 CC major homozygotes): 0.7381 | OR for Het (pravastatin vs placebo, hCV1650850 GC heterozygotes): 1.7143 | OR for carrier (Min + Het) (pravastatin vs placebo, hCV1650850 GG+GC carriers of minor allele): 1.7143 | OR for minor hom (pravastatin vs placebo, hCV3054766 AA minor homozygotes): 0.4856 | OR for carrier (Min + Het) (pravastatin vs placebo, hCV3054766 AA+AC carriers of minor allele): 0.6695 | OR for Het (pravastatin vs placebo, hCV3054766 AC heterozygotes): 0.7705 | OR for major hom (pravastatin vs placebo, hCV3054766 CC major homozygotes): 0.9847 | OR for minor hom (pravastatin vs placebo, hCV3054789 AA minor homozygotes): 1.0873 | OR for carrier (Min + Het) (pravastatin vs placebo, hCV3054789 AA+AT carriers of minor allele): 0.8227 | OR for Het (pravastatin vs placebo, hCV3054789 AT heterozygotes): 0.7597 | OR for major hom (pravastatin vs placebo, hCV3054789 TT major homozygotes): 0.6567 | OR for major hom (pravastatin vs placebo, hCV3054799 AA major homozygotes): 0.8639 | OR for Het (pravastatin vs placebo, hCV3054799 GA heterozygotes): 0.5818 | OR for minor hom (pravastatin vs placebo, hCV3054799 GG minor homozygotes): 0.9215 | OR for carrier (Min + Het) (pravastatin vs placebo, hCV3054799 GG+GA carriers of minor allele): 0.6442 | OR for major hom (pravastatin vs placebo, hCV3054805 CC major homozygotes): 0.9323 | OR for Het (pravastatin vs placebo, hCV3054805 GC heterozygotes): 0.5933 | OR for minor hom (pravastatin vs placebo, hCV3054805 GG minor homozygotes): 0.9317 | OR for carrier (Min + Het) (pravastatin vs placebo, hCV3054805 GG+GC carriers of minor allele): 0.6653 | OR for minor hom (pravastatin vs placebo, hCV3054808 AA minor homozygotes): 1.037 | OR for carrier (Min + Het) (pravastatin vs placebo, hCV3054808 AA+AC carriers of minor allele): 0.6257 | OR for Het (pravastatin vs placebo, hCV3054808 AC heterozygotes): 0.5292 | OR for major hom (pravastatin vs placebo, hCV3054808 CC major homozygotes): 1.0056 | OR for minor hom (pravastatin vs placebo, hCV3054822 AA minor homozygotes): 0.852 | OR for carrier (Min + Het) (pravastatin vs placebo, hCV3054822 AA+AT carriers of minor allele): 0.5778 | OR for Het (pravastatin vs placebo, hCV3054822 AT heterozygotes): 0.5213 | OR for major hom (pravastatin vs placebo, hCV3054822 TT major homozygotes): 0.9897 | OR for minor hom (pravastatin vs placebo, hCV3054829 CC minor homozygotes): 0.9021 | OR for carrier (Min + Het) (pravastatin vs placebo, hCV3054829 CC+CT carriers of minor allele): 0.8052 | OR for Het (pravastatin vs placebo, hCV3054829 CT heterozygotes): 0.783 | OR for major hom (pravastatin vs placebo, hCV3054829 TT major homozygotes): 0.6064 | OR for carrier (Min + Het) (pravastatin vs placebo, hCV15876373 CC+CT carriers of minor allele): 0.9708 | OR for Het (pravastatin vs placebo, hCV15876373 CT heterozygotes): 0.8241 | OR for major hom (pravastatin vs placebo, hCV15876373 TT major homozygotes): 0.6881 | OR for major hom (pravastatin vs placebo, hCV29649182 CC major homozygotes): 0.7223 | OR for Het (pravastatin vs placebo, hCV29649182 TC heterozygotes): 0.7631 | OR for minor hom (pravastatin vs placebo, hCV29649182 TT minor homozygotes): 1.7333 | OR for carrier (Min + Het) (pravastatin vs placebo, hCV29649182 TT+TC carriers of minor allele): 0.7818 | OR for minor hom (pravastatin vs placebo, hCV30388472 CC minor homozygotes): 0.5175 | OR for carrier (Min + Het) (pravastatin vs placebo, hCV30388472 CC+CT carriers of minor allele): 0.6291 | OR for Het (pravastatin vs placebo, hCV30388472 CT heterozygotes): 0.6798 | OR for major hom (pravastatin vs placebo, hCV30388472 TT major homozygotes): 1.0182 | OR for carrier (Min + Het) (pravastatin vs placebo, hCV30478067 AA+AG carriers of minor allele): 0.6875 | OR for Het (pravastatin vs placebo, hCV30478067 AG heterozygotes): 0.5153 | OR for major hom (pravastatin vs placebo, hCV30478067 GG major homozygotes): 0.7461 | OR for carrier (Min + Het) (pravastatin vs placebo, hCV31340487 CC+CT carriers of minor allele): 1.1573 | OR for Het (pravastatin vs placebo, hCV31340487 CT heterozygotes): 1.0761 | OR for major hom (pravastatin vs placebo, hCV31340487 TT major homozygotes): 0.697 | OR for carrier (Min + Het) (pravastatin vs placebo, hCV32202303 CC+CG carriers of minor allele): 0.5857 | OR for Het (pravastatin vs placebo, hCV32202303 CG heterozygotes): 0.6208 | OR for major hom (pravastatin vs placebo, hCV32202303 GG major homozygotes): 0.7655 | patients who had experienced another MI (whole pravastatin-treated group, 5 years of follow-up): 114 patients
